Assay results reported in patent US8512709B2, “Modified amyloid β peptide” (The Chemo-Sero-Therapeutic Research Institue, priority 2008, dated 2013).

Test system: Aβ peptide (1-40 amino acid sequence)
Assay: Anti-Aβ IgG antibody titer of murine serum after immunization with Aβ peptides (ELISA on immobilized Aβ 1-40)
Type: in vivo, C57BL/6 mice
Details: for Antibody titer Animal No. 1 / Antibody titer Animal No. 2 / Antibody titer Animal No. 3 / Antibody titer Animal No. 4: C57BL/6 mouse serum, Day 7 from final 3rd immunization; for Antibody titer Animal No. 1 / Antibody titer Animal No. 2 / Antibody titer Animal No. 3 / Antibody titer Animal No. 4 / Antibody titer Mean: 100 μg/mouse; for Antibody titer Mean: mean of 4 mice, serum Day 7 from final 3rd immunization
[1] = Example 1, result in words on Table 1
[2] = Example 2, result in words on Table 2

## DAEFRHDSGYKGAIIGLMVGGVVIA [1-10•28-42AA, 1-10+28-42-amino acid Aβ peptide, without addition of cysteine, reference compound]
Example 1
  Antibody titer Animal No. 1: 66 ng/mL
  Antibody titer Animal No. 2: 715 ng/mL
  Antibody titer Animal No. 3: 3559 ng/mL
  Antibody titer Animal No. 4: 13 ng/mL
  Antibody titer Mean: 1088.5 ng/mL
[1]
  induction of an antibody to Aβ: observed

## DAEFRHDSGYKGAIIGLMVGGVVIAC [1-10•28-42AACys, 1-10+28-42-amino acid Aβ peptide with addition of Cysteine]
Example 1
  antibody titer against Aβ as compared to the peptide without addition of cysteine (1-10·28-42AA): higher antibody titer
  Antibody titer Animal No. 1: 46266 ng/mL
  Antibody titer Animal No. 2: 19854 ng/mL
  Antibody titer Animal No. 3: 40681 ng/mL
  Antibody titer Animal No. 4: 33 ng/mL
  Antibody titer Mean: 26708.6 ng/mL
[1]
  induction of an antibody to Aβ: observed
Example 2
  Antibody titer Animal No. 1: 32 ng/mL
  Antibody titer Animal No. 2: 30482 ng/mL
  Antibody titer Animal No. 3: 33623 ng/mL
  Antibody titer Animal No. 4: 2072 ng/mL
  Antibody titer Mean: 16552.3 ng/mL
[2]
  induction of an antibody to Aβ: observed
Example 5
  Antibody titer Animal No. 1: 886.2 ng/mL
  Antibody titer Animal No. 2: 463379 ng/mL
  Antibody titer Animal No. 3: 414.8 ng/mL
  Antibody titer Animal No. 4: 3314 ng/mL
  Antibody titer Mean: 116998.5 ng/mL

## DAEFRHDSGYKGAIIGLMVGGVVIC [1-10•28-41AACys, 1-10+28-41-amino acid Aβ peptide with addition of Cysteine]
Example 2
  Antibody titer Animal No. 1: 292 ng/mL
  Antibody titer Animal No. 2: 1000 ng/mL
  Antibody titer Animal No. 3: 48460 ng/mL
  Antibody titer Animal No. 4: 422012 ng/mL
  Antibody titer Mean: 117941.1 ng/mL
[2]
  induction of an antibody to Aβ: observed

## DAEFRHDSKGAIIGLMVGC [1-8•28-37AACys, 1-8+28-37-amino acid Aβ peptide with addition of Cysteine]
Example 3
  Antibody titer Animal No. 1: 16 ng/mL
  Antibody titer Animal No. 2: 16 ng/mL
  Antibody titer Animal No. 3: 43 ng/mL
  Antibody titer Animal No. 4: 31 ng/mL
  Antibody titer Mean: 26.4 ng/mL

## EFRHDSGYKGAIIGLMVGC (added cysteine) [3-10•28-37AACys, 3-10+28-37-amino acid Aβ peptide with addition of Cysteine]
Example 4
  Antibody titer Animal No. 1: 3203 ng/mL
  Antibody titer Animal No. 2: 1456 ng/mL
  Antibody titer Animal No. 3: 4500 ng/mL
  Antibody titer Animal No. 4: 52 ng/mL
  Antibody titer Mean: 2302.8 ng/mL
Example 4, result in words on Table 4
  induction of an antibody to Aβ: observed

## FRHDSGYKGAIIGLMVGC (added cysteine) [4-10•28-37AACys, 4-10+28-37-amino acid Aβ peptide with addition of Cysteine]
Example 4
  Antibody titer Animal No. 1: 24 ng/mL
  Antibody titer Animal No. 2: 31 ng/mL
  Antibody titer Animal No. 3: 53 ng/mL
  Antibody titer Animal No. 4: 27 ng/mL
  Antibody titer Mean: 33.8 ng/mL
